Patent US8802662B2, “Anti-hepatitis C composition and method for preparing drug for inhibiting hepatitis C viruses or treating hepatitis C” (Industrial Technology Research Institute, priority 2009, dated 2014)
≈ marks a conversion by molar mass, not a printed value.

Columns and labels:
Huh-luc/neo-ET cells = assay: in vitro; format: cell-based; conditions: MTT, culturing for two days; for CC15: 15% of the cell cytotoxic concentration: from trend line formula (y = 85)
Method: (§1) Huh-luc/neo-ET cells with concentration of 2.5×10^4 cells/100 μl/well were seeded into a 96 well culture plate (Corning Incorporation COSTAR, 3599) and placed into a cell incubator for culturing.
(§2) The next day, a toosendanin sample was diluted with a DMEM culture medium to the concentrations of 28.73 μg/ml, 9.57 μg/ml, 3.19 μg/ml, 1.06 μg/ml, 0.35 μg/ml, 0.11 μg/ml, 0.039 μg/ml and 0.013 μg/ml, respectively, or to become the concentrations of 114.92 μg/ml, 38.33 μg/ml, 12.77 μg/ml, 4.25 μg/ml, 1.42 μg/ml, 0.46 μg/ml, 0.16 μg/ml and 0.057 μg/ml, respectively. The initial medium in the 96 well culture plate was sucked out by a vacuum pump (DOAT-704AA) without removing the cells. Then, the toosendanin culture medium with concentrations mentioned above were added into the 96 well culture plate containing cells with amount of 100 μl/well as experiment groups while untreated culture medium were added to the cells as a control group.
(§3) Then, PBS was removed and 50 μl of medium containing MTT (Sigma, M2128) with a concentration of 0.5 mg/ml was added into each well of the 96 well culture plate. After the 96 well culture plate was placed in a CO2 culture incubator for 1 hour, DMSO (Riedel-de Haën, 60153) with amount of 150 μl/well was added into the 96 well culture plate and vortexed by a votexer (KS shaker Type 670) to thoroughly mix the resulting purple precipitate. After the purple precipitate was thoroughly mixed, the 96 well culture plate was placed in a continuous wave length microwell plate analysis system (Molecular Devices, SPECTRAMAX 190) to measure the absorbance of cells at 560 nm.
(§4) The average absorbance of the control groups was used as 100% of the cell survival rates (%) to calculate the cell survival rates (%) of the experiment groups with different concentrations of toosendanin samples. The formula of the cell survival rate was: (absorbance of experiment group/absorbance of the control group)×100%. The cell survival rates of all experiment groups were drawn to form an x-y graph and thus a trend line formula with R^2 value greater than 0.9 was obtained.
(§5) In the trend line formula, when y was 50, the resulting X meant 50% of the cell cytotoxic concentration (CC50) or when y was 85, the resulting X meant 15% of the cell cytotoxic concentration (CC15). Due to the property of the sample, CC15 was calculated from the trend line formula generated by the experiment groups containing samples with concentrations of 3.19 μg/ml, 1.06 μg/ml, 0.35 μg/ml, 0.11 μg/ml and 0.039 μg/ml.
(§6) When the cell survival rates (%) was greater than 85%, it meant that the sample at or less than the concentration (the concentration less than CC15) was non-cytotoxic. […]

[1] = tested on: HCV replicon (I389luc-ubi-NS3-3′/ET) in Huh-luc/neo-ET cell; assay: HCV replication inhibition by firefly luciferase activity in Huh-luc/neo-ET cells (HCV replicon system); conditions: for IC50 / IC90: Hepatitis C virus, Huh-luc/neo-ET, 48 h; for IC50: read-out: IC50: 50% of the HCV replication inhibition concentration, Huh-luc/neo-ET cells, luciferase activity, co-cultured 2 days; for IC90: read-out: IC90: 90% of the HCV replication inhibition concentration; for IC50: 50% of the HCV replication inhibition concentration: Huh-luc/neo-ET cells, luciferase activity, co-cultured 2 days; for EW (effect window, CC50/IC50): ratio of CC50 to IC50 in Huh-luc/neo-ET cells
Text: The Huh-luc/neo-ET cell has I389luc-ubi-NS3-3′/ET replicon and could be used to monitor the replicative capability of the HCV. The Huh-luc/neo-ET is able to express a firefly luciferase-ubiquitin-neomycin fusion protein translated by the internal ribosomal entry site (IRES) of the hepatitis C virus and is able to express the hepatitis C viral nonstructural protein (NS3-5B) including protease, helicase and polymerase translated by the IRES of the encephalomyocarditis virus (EMCV). When the replication complex composed of the IRES of the hepatitis C virus or the nonstructural protein of the hepatitis C virus is influenced by a candidate, the effect of the candidate for inhibiting the activity of the hepatitis C virus repilcon can be estimated by determining the intensity of the firefly luciferase activity. The hepatitis C virus inhibition effect of the limonoid compound can be determined by determining the firefly luciferase activity expressed by the Huh-luc/noe-ET cell in presence of the limonoid compound.
5.96 g of chuanlianzi ethanol extract was dissolved in 20 ml of a mixture of methanol and water and extracted with 15 ml of n-hexane, diethyl ether, dichloromethane and ethyl acetate for 2-3 times, respectively to obtain an n-hexane layer extraction solution, diethyl ether layer extraction solution, dichloromethane layer extraction solution and ethyl acetate layer extraction solution, respectively. Each layer extraction solution was concentrated and dried to obtain an n-hexane layer extract, diethyl ether layer extract, dichloromethane layer extract and ethyl acetate layer extract, respectively. The hepatitis C inhibition activity of each layer extract was determined by using a Huh-luc/neo-ET cell (HCV replication system) for testing thereof.
The Huh-luc/neo-ET cells were co-cultured with toosendanin with concentrations of 0.15 μg/ml, 0.075 μg/ml, 0.038 μg/ml, 0.019 μg/ml and 0.0085 μg/ml, respectively for 2 days and then were washed twice by 100 μl of 1×PBS (1 mM KH2PO4, 10 mM Na2HPO4, 137 mM NaCl, 2.7 mM KCl) and PBS was removed. 35 μl of 1× passive lysis buffer (Promega, E1941) was added to the cells and vortexed by a vortexer for 10 minutes to thoroughly mix the cells.
Cell suspension with an amount of 30 μl/well was added to a 96 well white plate(NUNC, 236108) for measuring luciferase activity, and 40 μl/well of luminescence analysis buffer and 20 μl/well of luminescence substrate (1 mM D-Luciferin) were sequentially added into the 96 well white plates. After the substrate was added, a microplate luminescence meter (Berthold, MPL4) was used to measure the luciferase activity (Rlu/s).
The luciferase activity of the control group was used as a standard to calculate the hepatitis C virus inhibition rates (%) of the experiment groups. The formula of inhibition rates (%) was: {[(luciferase activity of control group)−(luciferase activity of experiment group)]/(luciferase activity of control group)}×100%. After the sample was serial diluted and the HCV replication inhibition rates were determined at different concentrations, 50% of the HCV replication inhibition concentration (IC50) was calculated by grafit5 software (Erithacus Software).
For each experiment, except for the PEG IFN alpha-2a with concentrations of 0.5 ng/ml and 0.1 ng/ml were used as positive controls for the IC50 test. Additionally, cyclosporine A (CsA) with a concentration of 1 μg/ml was also used as a positive control for the IC50 test.
The experiment procedure was the same as Example 2 while the testing sample was replaced with Trichilin H. The Huh-luc/neo-ET cells were co-cultured with Trichilin H with concentrations of 0.75 μg/ml, 0.5 μg/ml, 0.25 μg/ml and 0.125 μg/ml, respectively.

in vitro = format: cell-based; conditions: human, Huh-luc/neo-ET cells, MTT, culturing for two days; read-out: CC50: 50% of the cell cytotoxic concentration
Method: as §1, §2, §3, §4, §5, §6

| Structure (SMILES) | CC50: 50% of the cell cytotoxic concentration (Huh-luc/neo-ET cells) [µg/mL] | CC15: 15% of the cell cytotoxic concentration (Huh-luc/neo-ET cells) [µg/mL] | IC50 [1] [µg/mL] | IC90 [1] [µg/mL] | IC50: 50% of the HCV replication inhibition concentration [1] [µg/mL] | EW (effect window, CC50/IC50) [1] | EW (effect window, CC50/IC50) ([1]; listed as toosendanin) | CC50 (in vitro) [µg/mL] |
| --- | --- | --- | --- | --- | --- | --- | --- | --- |
| CC(=O)O[C@@H]1C[C@H](O)[C@@]23CO[C@@H](O)[C@]1(C)[C@@H]2C[C@@H](O)[C@]1(C)[C@@H]3C(=O)[C@H](OC(C)=O)[C@@]2(C)[C@H](c3ccoc3)C[C@H]3O[C@]321 [Toosendanin, toosendanin] | >114 | 0.34 | < 0.05 | 0.35 (≈ 0.609 µM) | 0.045 ± 0.004 | >2531.6 | greater than 2500 |  |
| CC(=O)OC1C(OC(C)=O)C2(C)C(OC(=O)C(C)C)OCC3(C1O)C2CC(O)C1(C)C3C(=O)C(OC(C)=O)C2(C)C(c3ccoc3)CC3OC321 (stereo not drawn) [Trichilin H] |  | 0.7 | < 0.5 | 0.9 (≈ 1.28 µM) | 0.48 ± 0.10 |  |  | > 50 |
